Data: US7709454B2, “Methods and compositions for inhibiting tumorigenesis” (New York University, priority 1997, dated 2010)

Key:
[1] = tested on: human melanoma primary cultures and cell lines; assay: BrdU incorporation in melanoma primary cultures and cell lines; format: cell-based
Procedure: (§1) Human foreskin melanocytes (Promocell) were grown in serum-free M2 medium (Promocell). WM-115, SK-MEL-2, SK-MEL-5, MeWo and COS7 cell lines (ATCC) were grown as specified. Tumors were chopped, incubated in E-MEM (Sigma) containing collagenase A (300 U/ml, Worthington) and hyaluronidase (100 U/ml, Sigma), mechanically dissociated and plated in E-MEM with 10% FBS, 1 mM sodium pyruvate (GIBCO) and 1 ng/ml EGF (GIBCO). […] All melanoma samples and BCC were obtained following approved protocols.
(§2) Commercial N-SHH (R&D Systems) was used at 100 nM. 5E1 anti-SHH blocking antibody (Hybridoma Bank, University of Iowa) was used at 10 μg/ml. Forskolin (FK) and 1,9-dideoxyforskolin (ddFK; Sigma) were used at 50 μM. […] MEK-1 (U0126; Promega), EGFR (AG1478; Biosource) and AKT (SH6; Alexis corporation) inhibitors were used at 1, 10, and 40 μM, respectively, dissolved in DMSO. Drug treatments were for 48 h in 2.5% serum. BrdU (Sigma) was pulsed at 4 μg/ml for 2 h before fixation followed by immunodetection with anti-BrdU antibodies (BD Biosciences). The number of viable cells was assessed by Trypan blue exclusion (Promega).

[2] = tested on: GLI1-transfected WM-115, SK-MEL-2 and SK-MEL-5; assay: GLI1-transfection enhanced BrdU incorporation, treatment with inhibitors; format: cell-based, human; details: 48 h treatment
Procedure: as §2

[3] = tested on: EJ-1 human bladder carcinoma; details: in vivo; cited from earlier work
[4] = tested on: HRAS^V12G or NRAS^Q61K transfected WM-115 and SK-Mel2 cells; assay: oncogenic RAS-transfection enhanced BrdU incorporation (Example 2); format: cell-based, human
Procedure: Forskolin (FK) and 1,9-dideoxyforskolin (ddFK; Sigma) were used at 50 μM. MEK-1 (U0126; Promega), and AKT (SH6; Alexis corporation) inhibitors were used at 1 and 40 μM, respectively, dissolved in DMSO. U0126 and SH6 were used for 1 h, 48 h post-transfection. Leptomycin B (LMB; Sigma) was used at 5 nM for 6 h, 48 h post-transfection. BrdU (Sigma) was pulsed at 4 μg/ml for 2 h before fixation followed by immunodetection with anti-BrdU antibodies (BD Biosciences). The number of viable cells was assessed by Trypan blue exclusion (Promega). […] (SEQ ID NO: 57) (target-validated from Ambion). […] SEQ ID NO: 58) (Sanchez, P. et al. Inhibition of prostate cancer proliferation by interference with SONIC HEDGEHOG-GLI1 signaling. Proc. Natl. Acad. Sci. USA. 101, 12561-12566 (2004)). siRNA transfections (0.2 μM) were performed with Oligofectamine (Invitrogen) for 48 h.
Cells were transfected (3 μg/p35 plate) with myc-tagged full-length CMV expression vectors with FUGENE (Roche). Transfections were at equimolar amounts unless otherwise specified with combinations of pCS2-Myc-tagged human GLI1, GLI3, GLI3R (GLI3C′ΔClaI), frog Gli2R (Gli2C′) (Ruiz i Altaba, A. Gli proteins encode context-dependent positive and negative functions: implications for development and disease. Development 126, 3205-3216 (1999), pCMV-HA-tagged GLI1 (ref. 20), HRAS^V12G (from A. Pellicer), NRAS^Q61K (Ackermann, J. et al. Metastasizing melanoma formation caused by expression of activated N-RasQ61K on an INK4a-deficient background. Cancer Res. 65, 4005-4011 (2005)), activated (myristoylated) myc-tagged AKT1 (Upstate), activated MEK1 (p45MAPKK^S222D; from J. Pouyssegur), Myc-tagged SUFUH (Kogerman, P. et al. Mammalian suppressor-of-fused modulates nuclear-cytoplasmic shuttling of Gli-1. Nat Cell Biol. 1, 312-319 (1999)), and pCMV-eGFP or pCMV-lacZ.

[5] = tested on: Nude Harlan Sprague-Dawley Mice/lung (A-549, Calu-1) tumors; details: 70 mg/kg/d; cited from earlier work
Nude mice/HIG3T3 = details: nude mice transplanted with activated H-Ras-transformed HIG3T3 cells; cited from earlier work
[6] = tested on: GLI1 transcriptional activity; assay: GLI luciferase reporter assay (7 GLI binding site reporter) in COS7 cells; format: cell-based, monkey
[7] = tested on: ras-transformed rat kidney cell; details: cited from earlier work
human cancer cells = details: cited from earlier work
[8] = tested on: Proliferating melanocytes from human foreskin; assay: BrdU incorporation in proliferating melanocytes; format: cell-based
Procedure: as §1, §2

[9] = tested on: WM115, SK-MEL-2, SK-MEL-5 and MeWo cell lines; assay: BrdU incorporation in melanoma cell lines; format: cell-based, human
Procedure: as §1, §2

[10] = tested on: GLI1, PTCH1, BMI1, FOXM1, MITFM expression; assay: qPCR gene expression in melanoma cultures; format: cell-based, human
Procedure: (§3) Real-time quantitative PCR amplifications with different primers (Suppl. Materials) were carried out at 60° C. on an Opticon machine (MJ Research) using iQ™ SYBR Green supermix (Biorad) and values calculated using the standard curve method.
as §2

WM-115, Me-3 and MeWo = assay: long-term cyclopamine treatment and recovery of cultures; format: cell-based, human; details: ten days, drug-containing media anew every 2 days
MeWo/LacZ melanomas = assay: subcutaneous MeWo/LacZ melanoma xenografts in nude mice; format: in vivo, mouse
Procedure: (§5) 5×10^5 MeWo/LacZ, WM-115 or 10^6 primary Me-3 melanoma cells were inoculated subcutaneously (s.c.) at two sides per adult male (NMRI-nu) nude mouse and the tumors were measured daily. […] For metastasis studies, 1×10^6 Mewo/LacZ cells were injected into the tail vein (i.v.) of adult male nude mice. […] At the end of the treatment the lungs were dissected and stained with XGal.

[11] = tested on: WM-115 subcutaneous tumors; assay: subcutaneous WM-115 melanoma xenografts in nude mice; format: in vivo, mouse; details: n=2 treated vs n=2 carrier
Procedure: as §5

p-ERK, p-AKT = assay: levels of p-ERK or p-AKT in melanoma cells; format: cell-based, human; details: cyclopamine treatment
[12] = tested on: NRAS^Q61K mouse melanoma primary cultures; assay: BrdU incorporation in primary cultures of Tyr-NRAS^Q61K; Ink4a−/− mouse melanomas; format: cell-based; details: 10 μM
Procedure: WM-115, SK-MEL-2 and COS7 cell lines (ATCC) were grown according to the specifications of the provider. The primary Me-3 melanoma (Stecca, B. et al. Melanocyte proliferation and melanoma growth, recurrence and metastasis require sustained SONIC HEDGEHOG-GLI signaling. Submitted. (2006)) was grown in E-MEM with 10% FBS (Hyclone), 1 mM sodium pyruvate (GIBCO) and 1 ng/ml EGF (GIBCO). Proliferating human melanocytes from foreskin (Promocell) were grown in M2 media (Promocell). Melanomas from ±6 month-old Tyr→NRAS^Q61K; Ink4a^−/− mice on a light coat color Dct^−/− background^13 were collected from the skin and lymph nodes. Tumors were dissociated and grown in E-MEM with 10% FBS, 1 mM sodium pyruvate (GIBCO) and 1 ng/ml EGF (GIBCO). Mouse embryonic fibroblasts (MEFs) were prepared from E14.5 Swiss Webster mouse embryos and grown in DMEM with 10% FBS.
Forskolin (FK) and 1,9-dideoxyforskolin (ddFK; Sigma) were used at 50 μM. MEK-1 (U0126; Promega), and AKT (SH6; Alexis corporation) inhibitors were used at 1 and 40 μM, respectively, dissolved in DMSO. U0126 and SH6 were used for 1 h, 48 h post-transfection. Leptomycin B (LMB; Sigma) was used at 5 nM for 6 h, 48 h post-transfection. BrdU (Sigma) was pulsed at 4 μg/ml for 2 h before fixation followed by immunodetection with anti-BrdU antibodies (BD Biosciences). The number of viable cells was assessed by Trypan blue exclusion (Promega). […]

Mewo cells = assay: BrdU incorporation, AKT inhibitor plus cyclopamine; format: cell-based, human; details: 5 μM cyclopamine plus 20 μM SH6, 48 hours
Procedure: (§4) Cell proliferation was assessed after incubation with BrdU as described.

WM115 cells = assay: BrdU incorporation, MEK inhibitor plus cyclopamine; format: cell-based, human; details: 5 μM cyclopamine plus 1 μM U0126, 48 hours
Procedure: as §4

[13] = tested on: GLI1, HIP and MITFM expression; assay: qPCR gene expression in proliferating melanocytes after SHH; format: cell-based, human; details: SHH treatment, 8 h, qPCR normalized to GAPDH
Procedure: as §3

[14] = tested on: primary cultures Me-1 to Me-5 (melanoma metastases); assay: BrdU incorporation in melanoma primary cultures; format: cell-based, human; details: exogenous recombinant SHH ligand, 48 h; fraction of five primary cultures
Procedure: as §1, §2

Compound: COc1cc2ncnc(Nc3cccc(Cl)c3)c2cc1OC [AG1428]
- BrdU incorporation ([1]; 48 h, all four melanoma cell lines tested and Me-3): decreased BrdU incorporation
- effect on GLI1-enhanced proliferation [2]: reversed

Compound: COC(=O)[C@H](CCSC)NC(=O)[C@H](/C=C\[C@@H](/C=C/[C@@H](N)CS)C(C)C)Cc1ccccc1 [B1086]
- tumor growth [3]: inhibit tumor growth

Compound: C=C[C@@]1(C)CC(=O)[C@]2(O)[C@@]3(C)[C@@H](O)CCC(C)(C)[C@@H]3[C@H](O)[C@H](OC(C)=O)[C@@]2(C)O1 [Forskolin]
- inhibition of oncogenic RAS-induced proliferation ([4]; SK-Mel2): 100%
- inhibition of oncogenic RAS-induced proliferation ([4]; WM-115): ~80%

Compound: CC(C)C[C@H](NC(=O)c1ccc(NC[C@@H](N)CS)cc1-c1cccc2ccccc12)C(=O)O [GGTI-297]
- GROWTH INHIBITION [5]: 56%-70%

Compound: C[C@H]([C@H](C/C=C/c1nc2ccccc2o1)c1ccc2c(c1)OCO2)N(Cc1ccc2ccccc2c1)C(=O)[C@H]1OC(C(=O)O)(C(=O)O)O[C@H]1C(=O)O [J-104871]
- tumor growth (Nude mice/HIG3T3): suppressed tumor growth

Compound: CCC(=C/[C@H](C)C/C=C/C(C)=C/[C@@H](C)C(=O)[C@@H](C)[C@H](O)[C@@H](C)C/C(C)=C/C(=O)O)/C=C/[C@@H]1OC(=O)C=C[C@@H]1C [LMB]
- increase of GLI1-induced luciferase activity ([6]; GLI1 alone, 4 h treatment with LMB): ~3 fold
- further increase in GLI activity ([6]; cells coexpressing GLI1 and NRAS^Q61K, LMB treatment): ~3 fold

Compound: Cc1ccc(S(=O)(=O)N[C@@H](Cc2ccccc2)C(=O)CCl)cc1 [TPCK]
- cell growth [7]: potently inhibit
- anchorage-independent clonogenic growth (human cancer cells): almost completely block

Compound: CC1=C2C[C@H]3[C@@H](CC=C4C[C@@H](O)CC[C@@]43C)[C@@H]2CC[C@]12O[C@@H]1C[C@H](C)CN[C@H]1[C@H]2C [cyclopamine]
- induction of the senescence marker SA-β-gal ([8]; cyclopamine treatment): did not induce
- sensitivity of tumor-derived MeWo/lacZ cells to cyclopamine in vitro versus parental cells ([9]; cells from systemically treated tumors): same sensitivity
- response of BrdU incorporation to cyclopamine ([1]; 24-48 h, dose-dependent, compared with tomatidine): all responded
- GLI1 expression ([10]; 24-48 h cyclopamine treatment): decreased GLI1 expression
- PTCH1 expression ([10]; cyclopamine 8 h, 3 primary cultures tested): inhibited PTCH1 expression
- Expression of BMI1, FOXM1 and MITFM ([10]; cyclopamine 8 h, primary cultures): repressed
- BrdU incorporation after long-term treatment (WM-115, Me-3 and MeWo): inhibit all BrdU incorporation
- recurrence after sustained treatment (MeWo/LacZ melanomas; 20 d treatment after tumor disappearance, 42 additional days): no recurrences
- tumor response to injection into the tumor (MeWo/LacZ melanomas; cyclodextrin-complexed cyclopamine injected into the tumor, tumors ±10 mm^3 or ±65 mm^3, vs cyclodextrin alone): rapid regression and disappearance of the tumors
- cured tumors containing small pockets of β-gal+ tumor cells or groups of single cells (MeWo/LacZ melanomas; five cured tumors taken 1-2 days after macroscopic disappearance): ⅘
- time to tumor reappearance (MeWo/LacZ melanomas; from the end of 3 d and 10 d additional treatment after tumor disappearance): 2 to 7 days
- decrease in tumor volume (MeWo/LacZ melanomas; systemic treatment of large subcutaneous tumors (±65 mm^3), 16 days, vs carrier-only): 33%
- tumor response to cyclopamine treatment [11]: lead to their disappearance
- inhibition of oncogenic RAS-enhanced BrdU incorporation ([4]; WM-115 and SK-Mel2): 65-75%
- levels of p-ERK or p-AKT (p-ERK, p-AKT): did not alter
- number of doubly BrdU+/GFP+ cells ([12]; two primary cultures (1-PM2, 1-LNM5), GFP plus control plasmid): decreased the number of doubly BrdU+/GFP+ cells
- effect on BrdU incorporation of suboptimal cyclopamine combined with SH6 (Mewo cells): significantly effective
- effect on BrdU incorporation of suboptimal cyclopamine combined with U0126 (WM115 cells): significantly effective

Compound: C[C@H]1CC[C@]2(NC1)O[C@H]1C[C@H]3[C@@H]4CC[C@H]5C[C@@H](O)CC[C@]5(C)[C@H]4CC[C@]3(C)[C@H]1[C@@H]2C [tomatidine]
- proliferation of all 12 primary cultures ([12]; 48 h): no effect

Compound: SHH: Commercial N-SHH (R&D Systems), recombinant SHH ligand
- increase in proliferation ([8]; recombinant SHH ligand, 48 h, over PBS): ⅓
- induction of GLI1 expression [13]: 2-3 fold
- induction of HIP expression [13]: 2-3 fold
- induction of MITFM expression [13]: 6 fold
- primary cultures with increased BrdU incorporation above a basal level (10%) [14]: ⅘
- cell lines with increased BrdU incorporation above a basal level (10%) ([9]; exogenous recombinant SHH ligand, 48 h, fraction of four cell lines): ¾
